Data on six compounds can be found in ChEMBL document CHEMBL1156569, “Structural basis for the improved drug resistance profile of new generation benzophenone non-nucleoside HIV-1 reverse transcriptase inhibitors” (J Med Chem, 2008).

What all share (type): functional, organism-based
What all share (details): Human immunodeficiency virus 1, HeLa

The test system of assay [1] is Human immunodeficiency virus 1. In words: Antiviral activity against NNRTI-resistant HIV1 with reverse transcriptase V106I mutant in HeLa cells by MAGI assay.
Assay [2] has as its system Human immunodeficiency virus 1. In words: Antiviral activity against NNRTI-resistant HIV1 with reverse transcriptase Y188C mutant in HeLa cells by MAGI assay.
Assay [3] deals with Human immunodeficiency virus 1. Put plainly: Antiviral activity against NNRTI-resistant HIV1 with reverse transcriptase V106I/Y181C mutant in HeLa cells by MAGI assay.
For assay [4], the system named is Human immunodeficiency virus 1. In words: Antiviral activity against NNRTI-resistant HIV1 with reverse transcriptase K103N/Y181C mutant in HeLa cells by MAGI assay.
In assay [5] the test system is Human immunodeficiency virus 1. Put plainly: Antiviral activity against wild type HIV1 in HeLa cells by MAGI assay.
Assay [6] has as its system Human immunodeficiency virus 1. In words: Antiviral activity against NNRTI-resistant HIV1 with reverse transcriptase Y181C mutant in HeLa cells by MAGI assay.
Assay [7] deals with Human immunodeficiency virus 1. In words: Antiviral activity against NNRTI-resistant HIV1 with reverse transcriptase K103N/V108I mutant in HeLa cells by MAGI assay.
In assay [8] the test system is Human immunodeficiency virus 1. Put plainly: Antiviral activity against NNRTI-resistant HIV1 with reverse transcriptase V106A mutant in HeLa cells by MAGI assay.
Assay [9] concerns Human immunodeficiency virus 1. In words: Antiviral activity against NNRTI-resistant HIV1 with reverse transcriptase V108I mutant in HeLa cells by MAGI assay.
The subject of assay [10] is Human immunodeficiency virus 1. In words: Antiviral activity against NNRTI-resistant HIV1 with reverse transcriptase K103N/P225H mutant in HeLa cells by MAGI assay.
For assay [11], the system named is Human immunodeficiency virus 1. Put plainly: Antiviral activity against NNRTI-resistant HIV1 with reverse transcriptase K101E mutant in HeLa cells by MAGI assay.
Assay [12] deals with Human immunodeficiency virus 1. In words: Antiviral activity against NNRTI-resistant HIV1 with reverse transcriptase V108I/Y181C mutant in HeLa cells by MAGI assay.
In assay [13] the test system is Human immunodeficiency virus 1. Put plainly: Antiviral activity against NNRTI-resistant HIV1 with reverse transcriptase V106A/Y181C mutant in HeLa cells by MAGI assay.
The test system of assay [14] is Human immunodeficiency virus 1. Put plainly: Antiviral activity against NNRTI-resistant HIV1 with reverse transcriptase V106M mutant in HeLa cells by MAGI assay.
Assay [15] deals with Human immunodeficiency virus 1. In words: Antiviral activity against NNRTI-resistant HIV1 with reverse transcriptase P236L mutant in HeLa cells by MAGI assay.
In assay [16] the test system is Human immunodeficiency virus 1. Put plainly: Antiviral activity against NNRTI-resistant HIV1 with reverse transcriptase K103N mutant in HeLa cells by MAGI assay.
In assay [17] the test system is Human immunodeficiency virus 1. In words: Antiviral activity against NNRTI-resistant HIV1 with reverse transcriptase L100I mutant in HeLa cells by MAGI assay.
The subject of assay [18] is Human immunodeficiency virus 1. In words: Antiviral activity against NNRTI-resistant HIV1 with reverse transcriptase G190A mutant in HeLa cells by MAGI assay.
In assay [19] the test system is Human immunodeficiency virus 1. Put plainly: Antiviral activity against NNRTI-resistant HIV1 with reverse transcriptase K103N/G190A mutant in HeLa cells by MAGI assay.
In assay [20] the test system is Human immunodeficiency virus 1. Put plainly: Antiviral activity against NNRTI-resistant HIV1 with reverse transcriptase G190S mutant in HeLa cells by MAGI assay.
Assay [21] concerns Human immunodeficiency virus 1. In words: Antiviral activity against NNRTI-resistant HIV1 with reverse transcriptase E138K mutant in HeLa cells by MAGI assay.
Assay [22] has as its system Human immunodeficiency virus 1. In words: Antiviral activity against NNRTI-resistant HIV1 with reverse transcriptase K103N/L100I mutant in HeLa cells by MAGI assay.
For assay [23], the system named is Human immunodeficiency virus 1. Put plainly: Antiviral activity against NNRTI-resistant HIV1 with reverse transcriptase G190E mutant in HeLa cells by MAGI assay.
Assay [24] concerns Human immunodeficiency virus 1. Put plainly: Antiviral activity against NNRTI-resistant HIV1 with reverse transcriptase Y188L mutant in HeLa cells by MAGI assay.
The subject of assay [25] is Human immunodeficiency virus 1. Put plainly: Antiviral activity against NNRTI-resistant HIV1 with reverse transcriptase P225H mutant in HeLa cells by MAGI assay.

As usually defined, the IC50 is the concentration at which inhibition is half-maximal. A low value points to higher potency. Take `Cc1cc(S(N)(=O)=O)ccc1NC(=O)COc1ccc(Cl)cc1C(=O)c1cc(Cl)cc(C#N)c1`: the 50% inhibitory concentration (IC50) was found to be 0.8 nM in [1]; 0.04 nM in [2]; 3.8 nM in [3]; 1.2 nM in [4]; 0.2 nM in [5]; 0.4 nM in assay [6]. The IC50 in [7] amounted to 0.9 nM; in assay [8] it was 1.1 nM; in assay [9], 0.7 nM; in assay [10], 0.7 nM; in assay [11] it was 0.6 nM; in assay [12], 0.6 nM. Moreover, the concentration for half-maximal inhibition (IC50) in assay [13] amounted to 1 nM; in [14], 0.4 nM; in assay [15] it was 0.4 nM; in [16], 0.4 nM; in assay [17], 0.3 nM; in [18], 0.6 nM. Besides, the half-maximal inhibitory concentration (IC50) in assay [19] was found to be 3.3 nM; in assay [20], 0.7 nM; in assay [21], 1.6 nM; in assay [22], 0.9 nM; in assay [23], 0.4 nM; in assay [24], 14 nM.
As for `Cc1cc(S(N)(=O)=O)ccc1NC(=O)COc1ccc(Cl)cc1C(=O)c1cc(F)cc(C(F)(F)F)c1`, the concentration for half-maximal inhibition (IC50) is 2.3 nM in assay [1]; 0.3 nM in assay [2]; 10 nM in [3]; 3.3 nM in assay [4]; 1.2 nM in assay [5]; 2.1 nM in [6]. For the same compound, the IC50 is 2.6 nM in assay [7]; 9.3 nM in assay [8]; 1.8 nM in assay [9]; 1.4 nM in assay [10]; 3.1 nM in [11]; 3.2 nM in assay [12]. The IC50 in [13] came out at 13 nM; in [15] it was 3.4 nM; in assay [16], 1.7 nM; in [17], 1.1 nM; in assay [18] it was 4 nM; in assay [19], 13 nM. Also, the concentration for half-maximal inhibition (IC50) worked out at 0.7 nM in [25]; 2.7 nM in assay [21]; 2.8 nM in assay [22]; 3.9 nM in assay [23]; 66 nM in [24].
Turning to `O=C(COc1ccc(Cl)cc1C(=O)c1ccccc1)Nc1ccccc1`, the IC50 is 18 nM in assay [1]; 122 nM in assay [2]; 1900 nM in [3]; 1050 nM in assay [4]; 2 nM in assay [5]; 162 nM in [6]. Besides, the IC50 in [7] is 347 nM; in assay [8] it was 696 nM; in assay [9], 19 nM; in assay [10], 56 nM; in [11], 13 nM; in assay [12] it was 638 nM. Further, the 50% inhibitory concentration (IC50) in [13] was found to be 902 nM; in assay [14], 155 nM; in [15], 5.4 nM; in [16], 25 nM; in assay [17], 21 nM; in assay [18], 31 nM. Moreover, the IC50 in assay [19] stood at 661 nM; in assay [25], 3.3 nM; in assay [20], 135 nM; in assay [21], 27 nM; in assay [22] it was 269 nM; in assay [23], 8.3 nM. The IC50 in assay [24] is greater than 2000 nM.
`O=C1Nc2ccc(Cl)cc2C(C#CC2CC2)(C(F)(F)F)O1` (single isomer, unassigned) [EFAVIRENZ]: the concentration for half-maximal inhibition (IC50) in [1] came to 0.9 nM; in assay [2], 1.2 nM; in assay [3] it was 3 nM; in [4], 44 nM; in assay [5], 0.4 nM; in assay [6], 0.8 nM. The IC50 in assay [7] amounted to 94 nM; in assay [8], 0.8 nM; in assay [9], 1.8 nM; in assay [11], 2.3 nM; in [12], 2.7 nM; in assay [13] it was 2 nM. Further, the IC50 came out at 7.2 nM in assay [14]; 0.6 nM in assay [15]; 17 nM in assay [16]; 21 nM in [17]; 5.9 nM in assay [18]; 1.3 nM in [25]. The IC50 in [20] was 89 nM; in [21] it was 1.2 nM; in assay [22], 1200 nM; in [23] it was 1 nM; in [24], 154 nM.
Turning to `CC(C)Nc1cccnc1N1CCN(C(=O)c2cc3cc(NS(C)(=O)=O)ccc3[nH]2)CC1` [DELAVIRDINE], the IC50 in [1] is 22 nM; in assay [2], 1620 nM; in assay [3] it was 943 nM; in [4], greater than 2000 nM; in assay [5], 88 nM; in assay [7], greater than 2000 nM. Moreover, the 50% inhibitory concentration (IC50) is 750 nM in assay [8]; greater than 2000 nM in assay [10]; 537 nM in assay [11]; greater than 2000 nM in assay [13]; greater than 2000 nM in assay [15]; 1600 nM in assay [16]. Further, the IC50 in assay [17] is 773 nM; in [18] it was 21 nM; in [19], 730 nM; in [22], greater than 2000 nM.
For `Cc1ccnc2c1NC(=O)c1cccnc1N2C1CC1` [NEVIRAPINE], the IC50 in assay [1] is 89 nM; in assay [2], 801 nM; in assay [3], greater than 2000 nM; in assay [4], greater than 2000 nM; in assay [5], 53 nM; in assay [6] it was greater than 2000 nM. The IC50 was greater than 2000 nM in [7]; 1870 nM in assay [8]; 294 nM in assay [9]; greater than 2000 nM in assay [10]; 409 nM in assay [11]; greater than 2000 nM in assay [12]. Also, the concentration for half-maximal inhibition (IC50) in [13] is greater than 2000 nM; in [14], greater than 2000 nM; in [15], 59 nM; in assay [16] it was greater than 2000 nM; in assay [17], 304 nM; in [18] it was greater than 2000 nM. The IC50 in assay [19] is greater than 2000 nM; in assay [25], 118 nM; in [20], greater than 2000 nM; in assay [21] it was 71 nM; in assay [22], greater than 2000 nM; in [23], 83 nM. This compound registered a half-maximal inhibitory concentration (IC50) in assay [24] greater than 2000 nM.
